Tests used:
Format in all cases: cell-based
[1] = tested on: WI-38 fibroblasts expressing mouse Noxa shRNA (WI38-m-Noxa-i); assay: Crystal violet viability assay; conditions: 48 hours
Procedure: (§1) FIGS. 13A and 13B are bar graphs illustrating the effect of various tested peptides on the viability of cells expressing Mut-p53, as determine by crystal violet assay. WI-38 fibroblasts expressing endogenous WT p53 were infected with retroviruses expressing either mouse Noxa shRNA (WI38-m-Noxa-i) as a nonspecific control or the R175H p53 mutant for stable overexpression of mutant p53 (WI38-175). The cells (WI38-m-Noxa-i or WI38-175) were seeded at 3000 cells per well in 96-well plates. Tested peptides were added to the cells. Different concentrations of etoposide (cytotoxic drug, 4′-Demethyl-epipodophyllotoxin 9-[4,6-O—(R)-ethylidene-beta-D-glucopyranoside], 4′-(dihydrogen phosphate) were used as positive control for cell death and as a standard reference curve to assess the effect of tested peptides. 48 hours after treatment, cells were washed with PBS to exclude dead cells and debris, and cells that remained attached to the plate were stained with crystal-violet for 30 minutes. Crystal violet was removed and cells were washed 4 times with PBS to remove residual crystal violet. Then, the stained cells were dissolved in 10% acetic acid and plates were taken for optical density measurement at 595 nM (optimal for crystal violet). The bar graphs of FIGS. 13A and 13B show the optical density reads at 595 nm, which reflect the number of cells in the plate after treatment, normalized to the non-treated (NT) samples.
(§2) Cells were cultured in 96 wells plates with 2500-4000 cells/well in 0.1 ml and incubated overnight at 37° C. in order to adhere to the plate. Serial dilutions of different peptides (0.5 μg/ml) were added in 0.1 ml aliquots and the plates incubated for additional 48 h at 37° C. Then medium was removed and cell lysis was determined by staining the cells with crystal violet (0.5%) in methanol/water (1:4, v/v), 50 μl each well, for 10 min, followed by 3 washes with PBS. Afterwards, 10% acetic acid (50 μl) was added to each well and shaken for 10 min. Then, automatic plate reading was performed at 595 nm.
(§3) An important indication for the reactivating peptides activity is their effect in-vivo on cancer cells that express Mut-p53. In particular, reactivating peptides that can cause specifically Mut-p53-dependent death of cancer cells, with minimal toxic effects on normal cells are desired. A crystal-violet based viability assay, in which crystal-violet is employed to stain cells that adhere to the plate and therefore the amount of dye is proportional to cell number was used to determine the effect of the various test peptides on Mut-p53-dependent death.
(§4) Cells were plated in 96-well plates, at calibrated density that allows them to grow for 48 hours without reaching confluence. Peptides are added 6 hours later. Different concentrations of etoposide (cytotoxic drug) were used as positive control for cell death and as a standard reference curve to assess the effect of tested peptides. 48 hours after treatment, cells were washed with PBS to exclude dead cells and debris, and cells that remained attached to the plate were stained with crystal-violet for 30 minutes. Crystal-violet was removed and cells were washed with PBS 4 times to eliminate remains of crystal-violet. Then, the stained cells were dissolved in 10% acetic acid and plates were taken for optical density measurement at 595 nM (specific to crystal-violet).
(§5) FIGS. 13A and 13B illustrate a representative experiment of screening performed on 128 synthesized peptides. In this experiment, WI-38 fibroblasts were used. These cells express endogenous WT p53 and were further infected with a virus expressing either mouse Noxa shRNA, as a nonspecific control or the R175H p53 mutant for stable overexpression of mutant p53. Both of these sub-lines (mNoxa or R175H p53) were seeded at 3000 cells per well and treated as described above. […]

[2] = tested on: WI-38 fibroblasts overexpressing R175H p53 (WI38-175); assay: Crystal violet viability assay; conditions: 48 hours; much more prominent than in mNoxa-i control cells
Procedure: as §1, §2, §3, §4, §5

[3] = tested on: Mut-p53-expressing human cancer cell lines; assay: Crystal violet viability assay on further cell lines; conditions: cell line not stated
Procedure: as §2, §3
Cells were plated in 96-well plates, at calibrated density that allows them to grow for 48 hours without reaching confluence. Peptides are added 6 hours later. […]

For YRRLLIGMMWRRRRRRRRRRR [pCAP-68], the “effect on cell numbers, mNoxa-i control WI-38 cells” value [1] was “toxic effect on both cell sub-lines”, the “reduction in cell numbers, R175H p53 expressing WI-38 cells” value [2] was “toxic effect on both cell sub-lines” and the “effect on cell viability” value [3] was “massive cell death”.

Reference: patent publication US11028127B2, “Peptides capable of reactivating p53 mutants” (Yeda Research and Development Co. Ltd., priority 2013, dated 2021)
